The values that follow come from patent publication US12605407B2, “Methods to induce terminal differentiation in stem cells by interfering with DNA replication, methods of inducing pancreatic differentiation, and differentiated cells obtained thereof” (priority 2018, dated 2026).

One experiment has as its system pancreatic progenitors. In words: Beta cell differentiation from human pluripotent stem cells, flow cytometry of C-peptide and NKX6.1 positive cells. The experiment is classed as cell-based. To be noted: for effectiveness to induce differentiation of pancreatic progenitors to C-peptide positive cells, comparison within panel: day 27; for percentage / number of C-peptide positive cells compared to control: end of differentiation on day 27, compounds added day 15 to day 27. On the procedure: Beta cells differentiated from human pluripotent stem cell lines as described in Example 2 (Sui et al., 2018b). Indicated compounds that function as cell cycle inhibitors were added individually from day 15 to day 27 with concentration listed below:
The DNA replication inhibitors used in this study: 0.1 μM, 0.5 μM and 1 μM Aphidicolin (A0781, Sigma-Aldrich); 2.5 μM Cisplatin (232120, EMD Millipore); 100 μM Ciprofloxacin (S2027, Selleck Chemicals); 10 μM Pyridostatin (S7444, Selleck Chemicals); 10 μM E2F Inhibitor (324461, EMD Millipore); 0.05 μM A485 (6387, Tocris); 2 μM RL5a (SML2187, Sigma-Aldrich); and 2 μM Etoposide (E55500, Research Products International). Indicated compounds were added individually from day 15 to day 27 with indicated concentration.
(§1) The beta cell clusters were dissociated using TrypLE™ Express into single cells. Cells were fixed with 4% PFA for 10 min and followed by permeabilization at −20° C. with cold methanol for 10 min. Primary antibodies were added at a dilution of 1:100 in autoMACs Rinsing Solution (Cat. No. 130-091-222, Miltenyi Biotec) containing 0.5% BSA at 4° C. for 1 hour. Secondary antibodies were added at a dilution of 1:500 at room temperature for 1 hour. The cells were filtered with BD Falcon 12×75 mm tube with cell strainer cap (Cat. No. 352235, BD) and subsequently analyzed by flow cytometer. Data were analyzed using Flowjo software. Negative controls were performed by only adding secondary antibodies.
Aphidicolin (APH), a DNA polymerase inhibitor, was used to inhibit DNA replication (Koundrioukoff et al., 2013). […] The insulin expressing cells were evenly distributed in the islet-like clusters with high percentage indicated by the expression of GFP, whereas some parts of the clusters in control remained GFP negative (FIG. 1D).
On the technique in general: In flow cytometry, cells or beads pass a laser one at a time.

The test system of experiment [1] is stem cell derived beta cells. Kind of experiment: Stability of beta cell identity in long-term culture after removal of compound at day 27. In kind it is cell-based, human. To be noted: additional 30 days of culture (day 60). On the procedure:
as §1
With APH, a high proportion of cells in the islet-like clusters were positive for C-peptide and NKX6.1, a transcription factor for maintaining the beta cell identity and functional maturation (Schaffer et al., 2013). […] Beta cells were cultured for additional 7 days until about day 34 and 30 days until about day 60 upon removal of these compounds at day 27. […] In contrast, in APH treated cells, there was no decrease in C-peptide or NKX6.1 on day 34 (FIG. 5A). […] After further culturing of the cells for extra 30 days, very few of cells in control group remained GFP expression and were positive for C-peptide.
The ability of other DNA replication inhibitors to stabilize the beta cell identity was investigated. The expressions of GFP were maintained after releasing cells from these inhibitors for 7 days until day 34. With additional 30 days of culture, the expressions of GFP were reduced in all conditions at certain levels, but the cells treated with Cis and Eto expressed higher GFP than the cells treated with APH compared to the other conditions (FIG. 5E, FIG. 5F).

As for `COc1cc([C@@H]2c3cc4c(cc3[C@@H](O[C@@H]3O[C@@H]5CO[C@@H](C)O[C@H]5[C@H](O)[C@H]3O)[C@H]3COC(=O)[C@H]23)OCO4)cc(OC)c1O` [Etoposide], the “effectiveness to induce differentiation of pancreatic progenitors to C-peptide positive cells, comparison within panel” value (“effectiveness to induce differentiation” below) with pancreatic progenitors is recorded as “most effective”. Also, the “expressions of GFP (insulin)” value in experiment [1] was “higher GFP”.
In the case of `N.N.[Cl][Pt][Cl]` [cisplatin, Cisplatin], the “effectiveness to induce differentiation” value with pancreatic progenitors is on record as “most effective”. Moreover, in experiment [1], the “expressions of GFP (insulin)” value is “higher GFP”.
Regarding `CNC(=O)Nc1ccc2c(c1)CC[C@@]21OC(=O)N(CC(=O)N(Cc2ccc(F)cc2)[C@@H](C)C(F)(F)F)C1=O` [P300 inhibitor], in the experiment on pancreatic progenitors, the “percentage / number of C-peptide positive cells compared to control” value is on record as “no significant increase”.
As to RL5a, in the experiment on pancreatic progenitors, the “effectiveness to induce differentiation” value is listed as “less effective” and the “percentage / number of C-peptide positive cells compared to control” value is recorded as “failed to increase”.
`O=C1NC(=O)c2c1c1c3ccccc3[nH]c1c1[nH]c3cc(Br)ccc3c21` [CDK4]: in the experiment with pancreatic progenitors, the “effectiveness to induce differentiation” value is recorded as “less effective”.
